# Source: the CheMixHub viscosity set
# ± gives the uncertainty stated by the source.
# Test: xn = mol fraction of the nth substance listed
smiles,measurement,setting,value
ClCCl + ClC(Cl)Cl,viscosity,"303.15 K, 101.3 kPa, x1 = 0.4966",0.4521 ± 0.0039 mPa·s
ClCCl + ClCCCl,viscosity,"303.15 K, 101.3 kPa, x2 = 0.0618",0.408 ± 0.0036 mPa·s
same,viscosity,"303.15 K, 101.3 kPa, x2 = 0.1258",0.4242 ± 0.0037 mPa·s
same,viscosity,"303.15 K, 101.3 kPa, x2 = 0.2132",0.4486 ± 0.0039 mPa·s
same,viscosity,"303.15 K, 101.3 kPa, x2 = 0.3029",0.474 ± 0.0041 mPa·s
same,viscosity,"303.15 K, 101.3 kPa, x2 = 0.419",0.5092 ± 0.0044 mPa·s
same,viscosity,"303.15 K, 101.3 kPa, x2 = 0.5226",0.5436 ± 0.0046 mPa·s
same,viscosity,"303.15 K, 101.3 kPa, x2 = 0.6033",0.5714 ± 0.0048 mPa·s
same,viscosity,"303.15 K, 101.3 kPa, x2 = 0.7998",0.6445 ± 0.0053 mPa·s
same,viscosity,"303.15 K, 101.3 kPa, x2 = 0.8933",0.6822 ± 0.0056 mPa·s
same,viscosity,"303.15 K, 101.3 kPa, x2 = 0.9517",0.7068 ± 0.0058 mPa·s
CCNc1ccccc1 + Clc1ccccc1,viscosity,"303.15 K, 101 kPa, x1 = 0.0629",0.767 ± 0.011 mPa·s
same,viscosity,"303.15 K, 101 kPa, x1 = 0.1159",0.816 ± 0.012 mPa·s
same,viscosity,"303.15 K, 101 kPa, x1 = 0.1959",0.894 ± 0.012 mPa·s
same,viscosity,"303.15 K, 101 kPa, x1 = 0.2558",0.954 ± 0.012 mPa·s
same,viscosity,"303.15 K, 101 kPa, x1 = 0.3298",1.028 ± 0.012 mPa·s
same,viscosity,"303.15 K, 101 kPa, x1 = 0.3968",1.096 ± 0.013 mPa·s
same,viscosity,"303.15 K, 101 kPa, x1 = 0.4856",1.188 ± 0.013 mPa·s
same,viscosity,"303.15 K, 101 kPa, x1 = 0.5625",1.267 ± 0.014 mPa·s
same,viscosity,"303.15 K, 101 kPa, x1 = 0.6359",1.342 ± 0.014 mPa·s
same,viscosity,"303.15 K, 101 kPa, x1 = 0.7025",1.412 ± 0.014 mPa·s
same,viscosity,"303.15 K, 101 kPa, x1 = 0.7839",1.499 ± 0.015 mPa·s
same,viscosity,"303.15 K, 101 kPa, x1 = 0.8592",1.581 ± 0.015 mPa·s
same,viscosity,"303.15 K, 101 kPa, x1 = 0.9215",1.65 ± 0.016 mPa·s
same,viscosity,"308.15 K, 101 kPa, x1 = 0.0629",0.72 ± 0.011 mPa·s
same,viscosity,"308.15 K, 101 kPa, x1 = 0.1159",0.758 ± 0.011 mPa·s
same,viscosity,"308.15 K, 101 kPa, x1 = 0.1959",0.823 ± 0.012 mPa·s
same,viscosity,"308.15 K, 101 kPa, x1 = 0.2558",0.873 ± 0.012 mPa·s
same,viscosity,"308.15 K, 101 kPa, x1 = 0.3298",0.937 ± 0.012 mPa·s
same,viscosity,"308.15 K, 101 kPa, x1 = 0.3968",0.995 ± 0.012 mPa·s
same,viscosity,"308.15 K, 101 kPa, x1 = 0.4856",1.073 ± 0.013 mPa·s
same,viscosity,"308.15 K, 101 kPa, x1 = 0.5625",1.141 ± 0.013 mPa·s
same,viscosity,"308.15 K, 101 kPa, x1 = 0.6359",1.206 ± 0.014 mPa·s
same,viscosity,"308.15 K, 101 kPa, x1 = 0.7025",1.266 ± 0.014 mPa·s
same,viscosity,"308.15 K, 101 kPa, x1 = 0.7839",1.34 ± 0.014 mPa·s
same,viscosity,"308.15 K, 101 kPa, x1 = 0.8592",1.411 ± 0.015 mPa·s
same,viscosity,"308.15 K, 101 kPa, x1 = 0.9215",1.473 ± 0.015 mPa·s
C1CCC2=[NH+]CCCN2CC1.c1c[n-]cn1 + O,viscosity,"298.15 K, 100 kPa, x1 = 0.2994",42.65 ± 0.97 mPa·s
CC(C)C[C@H](NC(=O)[C@H](C)N)C(=O)O + O,viscosity,"305.15 K, 101 kPa, x1 = 3.33e-05",0.7759 ± 0.0096 mPa·s
same,viscosity,"305.15 K, 101 kPa, x1 = 7.01e-05",0.7781 ± 0.0096 mPa·s
same,viscosity,"305.15 K, 101 kPa, x1 = 0.000104",0.7785 ± 0.0096 mPa·s
same,viscosity,"305.15 K, 101 kPa, x1 = 0.000146",0.7806 ± 0.0096 mPa·s
same,viscosity,"305.15 K, 101 kPa, x1 = 0.000174",0.7826 ± 0.0097 mPa·s
same,viscosity,"305.15 K, 101 kPa, x1 = 0.0002197",0.7869 ± 0.0097 mPa·s
same,viscosity,"305.15 K, 101 kPa, x1 = 0.0002561",0.796 ± 0.0098 mPa·s
same,viscosity,"305.15 K, 101 kPa, x1 = 0.0002862",0.8042 ± 0.0099 mPa·s
same,viscosity,"305.15 K, 101 kPa, x1 = 0.0003157",0.8098 ± 0.01 mPa·s
same,viscosity,"305.15 K, 101 kPa, x1 = 0.0003701",0.8149 ± 0.01 mPa·s
same,viscosity,"310.15 K, 101 kPa, x1 = 3.33e-05",0.7079 ± 0.0087 mPa·s
same,viscosity,"310.15 K, 101 kPa, x1 = 7.01e-05",0.7086 ± 0.0088 mPa·s
same,viscosity,"310.15 K, 101 kPa, x1 = 0.000104",0.7126 ± 0.0088 mPa·s
same,viscosity,"310.15 K, 101 kPa, x1 = 0.000146",0.7129 ± 0.0088 mPa·s
same,viscosity,"310.15 K, 101 kPa, x1 = 0.000174",0.7165 ± 0.0088 mPa·s
same,viscosity,"310.15 K, 101 kPa, x1 = 0.0002197",0.7198 ± 0.0089 mPa·s
same,viscosity,"310.15 K, 101 kPa, x1 = 0.0002561",0.7242 ± 0.0089 mPa·s
same,viscosity,"310.15 K, 101 kPa, x1 = 0.0002862",0.7292 ± 0.009 mPa·s
same,viscosity,"310.15 K, 101 kPa, x1 = 0.0003157",0.7334 ± 0.0091 mPa·s
same,viscosity,"310.15 K, 101 kPa, x1 = 0.0003701",0.7359 ± 0.0091 mPa·s
same,viscosity,"315.15 K, 101 kPa, x1 = 3.33e-05",0.6492 ± 0.008 mPa·s
same,viscosity,"315.15 K, 101 kPa, x1 = 7.01e-05",0.6505 ± 0.008 mPa·s
same,viscosity,"315.15 K, 101 kPa, x1 = 0.000104",0.6525 ± 0.0081 mPa·s
same,viscosity,"315.15 K, 101 kPa, x1 = 0.000146",0.6559 ± 0.0081 mPa·s
same,viscosity,"315.15 K, 101 kPa, x1 = 0.000174",0.6596 ± 0.0081 mPa·s
same,viscosity,"315.15 K, 101 kPa, x1 = 0.0002197",0.6605 ± 0.0082 mPa·s
same,viscosity,"315.15 K, 101 kPa, x1 = 0.0002561",0.6629 ± 0.0082 mPa·s
same,viscosity,"315.15 K, 101 kPa, x1 = 0.0002862",0.6678 ± 0.0083 mPa·s
same,viscosity,"315.15 K, 101 kPa, x1 = 0.0003157",0.6692 ± 0.0083 mPa·s
same,viscosity,"315.15 K, 101 kPa, x1 = 0.0003701",0.6709 ± 0.0083 mPa·s
CCC(=O)N(CC)CC + O,viscosity,"298.16 K, 101 kPa, x2 = 0.0649",1.31 ± 0.01 mPa·s
same,viscosity,"298.16 K, 101 kPa, x2 = 0.1684",1.49 ± 0.01 mPa·s
same,viscosity,"298.16 K, 101 kPa, x2 = 0.2965",1.79 ± 0.02 mPa·s
same,viscosity,"298.16 K, 101 kPa, x2 = 0.4448",2.27 ± 0.02 mPa·s
same,viscosity,"298.16 K, 101 kPa, x2 = 0.5923",2.93 ± 0.03 mPa·s
same,viscosity,"298.16 K, 101 kPa, x2 = 0.7652",3.86 ± 0.03 mPa·s
same,viscosity,"298.16 K, 101 kPa, x2 = 0.8001",3.91 ± 0.03 mPa·s
same,viscosity,"298.16 K, 101 kPa, x2 = 0.8352",3.83 ± 0.03 mPa·s
same,viscosity,"298.16 K, 101 kPa, x2 = 0.8933",3.34 ± 0.03 mPa·s
same,viscosity,"298.16 K, 101 kPa, x2 = 0.9093",3.03 ± 0.03 mPa·s
CCC[n+]1ccn(C)c1.N[C@@H](CO)C(=O)[O-] + O,viscosity,"308.15 K, 100 kPa, x2 = 0.0574",996.5 ± 100 mPa·s
CCOC(N)=O + O,viscosity,"293.15 K, 101.33 kPa, x1 = 0.01112",1.122 ± 0.01 mPa·s
same,viscosity,"293.15 K, 101.33 kPa, x1 = 0.02393",1.253 ± 0.011 mPa·s
same,viscosity,"293.15 K, 101.33 kPa, x1 = 0.03411",1.356 ± 0.012 mPa·s
same,viscosity,"293.15 K, 101.33 kPa, x1 = 0.0497",1.505 ± 0.014 mPa·s
same,viscosity,"293.15 K, 101.33 kPa, x1 = 0.06189",1.618 ± 0.015 mPa·s
same,viscosity,"293.15 K, 101.33 kPa, x1 = 0.07566",1.743 ± 0.016 mPa·s
same,viscosity,"293.15 K, 101.33 kPa, x1 = 0.1253",2.156 ± 0.02 mPa·s
same,viscosity,"298.15 K, 101.33 kPa, x1 = 0.01112",0.9919 ± 0.0094 mPa·s
same,viscosity,"298.15 K, 101.33 kPa, x1 = 0.02393",1.102 ± 0.01 mPa·s
same,viscosity,"298.15 K, 101.33 kPa, x1 = 0.03411",1.191 ± 0.011 mPa·s
same,viscosity,"298.15 K, 101.33 kPa, x1 = 0.0497",1.314 ± 0.013 mPa·s
same,viscosity,"298.15 K, 101.33 kPa, x1 = 0.06189",1.409 ± 0.014 mPa·s
same,viscosity,"298.15 K, 101.33 kPa, x1 = 0.07566",1.513 ± 0.015 mPa·s
same,viscosity,"298.15 K, 101.33 kPa, x1 = 0.1253",1.86 ± 0.019 mPa·s
CC[NH+](C)CC.CS(=O)(=O)[O-] + O,viscosity,"318.15 K, 100 kPa, x1 = 0.4263",15.65 ± 1.6 mPa·s
C[C@H]1COc2c(N3CCN(C)CC3)c(F)cc3c(=O)c(C(=O)O)cn1c23 + O,viscosity,"293.15 K, 100 kPa, x1 = 0.00015",1.009 ± 0.035 mPa·s
same,viscosity,"293.15 K, 100 kPa, x1 = 0.000344",1.016 ± 0.035 mPa·s
same,viscosity,"293.15 K, 100 kPa, x1 = 0.000425",1.019 ± 0.035 mPa·s
same,viscosity,"298.15 K, 100 kPa, x1 = 0.00015",0.8934 ± 0.035 mPa·s
same,viscosity,"298.15 K, 100 kPa, x1 = 0.000344",0.889 ± 0.035 mPa·s
same,viscosity,"298.15 K, 100 kPa, x1 = 0.000425",0.9064 ± 0.035 mPa·s
same,viscosity,"303.15 K, 100 kPa, x1 = 0.00015",0.8026 ± 0.035 mPa·s
same,viscosity,"303.15 K, 100 kPa, x1 = 0.000344",0.8085 ± 0.035 mPa·s
same,viscosity,"303.15 K, 100 kPa, x1 = 0.000425",0.8134 ± 0.035 mPa·s
same,viscosity,"308.15 K, 100 kPa, x1 = 0.00015",0.7256 ± 0.035 mPa·s
same,viscosity,"308.15 K, 100 kPa, x1 = 0.000344",0.7296 ± 0.035 mPa·s
same,viscosity,"308.15 K, 100 kPa, x1 = 0.000425",0.7336 ± 0.035 mPa·s
same,viscosity,"313.15 K, 100 kPa, x1 = 0.00015",0.6575 ± 0.034 mPa·s
same,viscosity,"313.15 K, 100 kPa, x1 = 0.000344",0.6617 ± 0.034 mPa·s
same,viscosity,"313.15 K, 100 kPa, x1 = 0.000425",0.6673 ± 0.034 mPa·s
